Data taken from US20260306644A1, “ANTIBODY RECRUITING MOLECULES FOR THE TREATMENT OF CORONAVIRUS DISEASE-19” (priority 2023, published 2026).
Several values for one entry are separate records, joined by “and”; a condition that tells them apart may be missing. Equal entries are not always repeated. Where two headings read alike, the source gives them in different places. Positions of bridges follow the written chain, without caps; N, C: chain ends. Residues, ends and D or L forms follow the SMILES beside them.

Target: T1, SARS-CoV-2 Spike A (wild-type) (Severe acute respiratory syndrome coronavirus 2, UniProt P0DTC2)
T1 construct: purchased Meso Scale Diagnostics, LLC V-PLEX SARS-CoV-2 Panel 13 (ACE2) Kit / Panel 23 (ACE2) Kit
Test: MSD ACE2 competition assay (inhibition of Spike binding with ACE2, ECL), A (wild-type)

[1] = IC50 Wild Type, Wild Type Spike
[2] = read-out: IC50, Wild Type, Wild Type

CC[C@H](C)[C@H](NC(=O)[C@H](CC(C)C)NC(=O)[C@H](CC(=O)O)NC(=O)[C@H](CO)NC(=O)[C@@H](NC(=O)[C@H](CCCNC(=N)N)NC(=O)[C@H](CCSC)NC(=O)[C@@H]1CSSC[C@H](NC(=O)[C@H](CC(C)C)NC(=O)[C@H](CCCNC(=N)N)NC(=O)[C@H](CCSC)NC(=O)[C@@H](NC(=O)[C@H](CCC(=O)O)NC(=O)[C@H](Cc2ccc(O)cc2)NC(=O)[C@@H](NC(=O)[C@H](CCCCN)NC(=O)[C@H](CCC(N)=O)NC(=O)[C@H](CC(C)C)NC(=O)[C@@H](NC(=O)[C@H](Cc2c[nH]c3ccccc23)NC(=O)[C@H](CCC(=O)O)NC(=O)[C@H](CCCCN)NC(=O)[C@@H](N)CC(=O)O)[C@@H](C)CC)[C@@H](C)CC)[C@@H](C)CC)C(=O)N[C@@H](CC(=O)O)C(=O)N[C@@H](CCC(=O)O)C(=O)N[C@@H](CC(C)C)C(=O)NCC(=O)N[C@@H](Cc2c[nH]cn2)C(=O)N[C@@H](C)C(=O)N[C@@H](CCC(=O)O)C(=O)N[C@@H](C)C(=O)N1)C(C)C)C(=O)N[C@@H](Cc1ccc(O)cc1)C(=O)N[C@@H](CCC(=O)O)C(=O)N[C@@H](Cc1ccccc1)C(=O)N[C@@H](CCSC)C(=O)N[C@@H](CCCCN)C(=O)N[C@@H](CCCCN)C(=O)NCC(N)=O [Compound 138] (H-DKEWILQKIYEIMRLCDELGHAEACMRVSDLIYEFMKKG-NH2; disulfide 16-25)
IC50 (IC50, Wild Type, Wild Type): 12.7 nM

CC[C@H](C)[C@H](NC(C)=O)C(=O)N[C@@H](CC(C)C)C(=O)N[C@@H](CCC(N)=O)C(=O)N[C@@H](CCCCN)C(=O)N[C@H](C(=O)N[C@@H](Cc1ccc(O)cc1)C(=O)N[C@@H](CCC(=O)O)C(=O)N[C@H](C(=O)N[C@@H](CCSC)C(=O)N[C@@H](CCCNC(=N)N)C(=O)N[C@@H](CC(C)C)C(=O)N[C@@H](CC(C)C)C(=O)N[C@@H](CC(=O)O)C(=O)N[C@@H](CCC(=O)O)C(=O)N[C@@H](CC(C)C)C(=O)NCC(=O)N[C@@H](Cc1c[nH]cn1)C(=O)N[C@@H](C)C(=O)N[C@@H](CCC(=O)O)C(=O)N[C@@H](C)C(=O)N[C@@H](CO)C(=O)N[C@@H](CCSC)C(=O)N[C@@H](CCCNC(=N)N)C(=O)N[C@H](C(=O)N[C@@H](CO)C(=O)N[C@@H](CC(=O)O)C(=O)N[C@@H](CC(C)C)C(=O)N[C@H](C(=O)N[C@@H](Cc1ccc(O)cc1)C(=O)N[C@@H](CCC(=O)O)C(=O)N[C@@H](Cc1ccccc1)C(=O)N[C@@H](CCSC)C(=O)N[C@@H](CCCCN)C(=O)N[C@@H](CCCCN)C(=O)NCC(=O)NCCOCCOCCOCCOCCOCCOCCOCCOCCC(=O)NCCOCCOCCOCCOCCOCCOCCOCCOCCC(=O)N[C@@H](CC(=O)O)C(=O)N[C@H]1CSSC[C@@H](C(=O)N[C@H](C(N)=O)[C@@H](C)O)NC(=O)[C@H](Cc2c[nH]c3ccccc23)NC(=O)[C@H](C(C)C)NC(=O)[C@H](CC(C)C)NC(=O)[C@H](CCC(=O)O)NC(=O)CNC(=O)[C@H](CC(C)C)NC(=O)[C@H](Cc2c[nH]cn2)NC(=O)[C@H](Cc2c[nH]c3ccccc23)NC(=O)[C@H](C)NC1=O)[C@@H](C)CC)C(C)C)[C@@H](C)CC)[C@@H](C)CC [Compound 155]
IC50 [1]: 7.67 nM

CC[C@H](C)[C@H](NC(=O)[C@H](CC(C)C)NC(=O)[C@H](CC(=O)O)NC(=O)[C@H](CO)NC(=O)[C@@H](NC(=O)[C@H](CCCNC(=N)N)NC(=O)[C@H](CCSC)NC(=O)[C@@H]1CSSC[C@H](NC(=O)[C@H](CC(C)C)NC(=O)[C@H](CCCNC(=N)N)NC(=O)[C@H](CCSC)NC(=O)[C@@H](NC(=O)[C@H](CCC(=O)O)NC(=O)[C@H](Cc2ccc(O)cc2)NC(=O)[C@@H](NC(=O)[C@H](CCCCN)NC(=O)[C@H](CCC(N)=O)NC(=O)[C@H](CC(C)C)NC(=O)[C@@H](NC(=O)[C@H](Cc2c[nH]c3ccccc23)NC(=O)[C@H](CCC(=O)O)NC(=O)[C@H](CCCCN)NC(=O)[C@H](CC(=O)O)NC(C)=O)[C@@H](C)CC)[C@@H](C)CC)[C@@H](C)CC)C(=O)N[C@@H](CC(=O)O)C(=O)N[C@@H](CCC(=O)O)C(=O)N[C@@H](CC(C)C)C(=O)NCC(=O)N[C@@H](Cc2c[nH]cn2)C(=O)N[C@@H](C)C(=O)N[C@@H](CCC(=O)O)C(=O)N[C@@H](C)C(=O)N1)C(C)C)C(=O)N[C@@H](Cc1ccc(O)cc1)C(=O)N[C@@H](CCC(=O)O)C(=O)N[C@@H](Cc1ccccc1)C(=O)N[C@@H](CCSC)C(=O)N[C@@H](CCCCN)C(=O)N[C@@H](CCCCN)C(=O)NCC(N)=O [Compound 175] (Ac-DKEWILQKIYEIMRLCDELGHAEACMRVSDLIYEFMKKG-NH2; disulfide 16-25)
IC50 [2]: 7.68 nM

CC[C@H](C)[C@H](NC(=O)[C@H](CC(C)C)NC(=O)[C@H](CC(=O)O)NC(=O)[C@H](CO)NC(=O)[C@@H](NC(=O)[C@H](CCCNC(=N)N)NC(=O)[C@H](CCSC)NC(=O)[C@@H]1CSSC[C@H](NC(=O)[C@H](CC(C)C)NC(=O)[C@H](CCCNC(=N)N)NC(=O)[C@H](CCSC)NC(=O)[C@@H](NC(=O)[C@H](CCC(=O)O)NC(=O)[C@H](Cc2ccc(O)cc2)NC(=O)[C@@H](NC(=O)[C@H](CCCCN)NC(=O)[C@H](CCC(N)=O)NC(=O)[C@H](CC(C)C)NC(=O)[C@@H](NC(=O)[C@H](Cc2c[nH]c3ccccc23)NC(=O)[C@H](CCC(=O)O)NC(=O)[C@H](CCCCN)NC(=O)[C@H](CC(=O)O)NC(=O)[C@H](CO)NC(C)=O)[C@@H](C)CC)[C@@H](C)CC)[C@@H](C)CC)C(=O)N[C@@H](CC(=O)O)C(=O)N[C@@H](CCC(=O)O)C(=O)N[C@@H](CC(C)C)C(=O)NCC(=O)N[C@@H](Cc2c[nH]cn2)C(=O)N[C@@H](C)C(=O)N[C@@H](CCC(=O)O)C(=O)N[C@@H](C)C(=O)N1)C(C)C)C(=O)N[C@@H](Cc1ccc(O)cc1)C(=O)N[C@@H](CCC(=O)O)C(=O)N[C@@H](Cc1ccccc1)C(=O)N[C@@H](CCSC)C(=O)N[C@@H](CCCCN)C(=O)N[C@@H](CCCCN)C(=O)NCC(N)=O [Compound 176]
IC50 [2]: 5.02 nM

CC[C@H](C)[C@H](NC(=O)[C@H](CC(C)C)NC(=O)[C@H](CC(=O)O)NC(=O)[C@H](CO)NC(=O)[C@@H](NC(=O)[C@H](CCCNC(=N)N)NC(=O)[C@H](CCSC)NC(=O)[C@@H]1CSSC[C@H](NC(=O)[C@H](CC(C)C)NC(=O)[C@H](CCCNC(=N)N)NC(=O)[C@H](CCSC)NC(=O)[C@@H](NC(=O)[C@H](CCC(=O)O)NC(=O)[C@H](Cc2ccc(O)cc2)NC(=O)[C@@H](NC(=O)[C@H](CCCCN)NC(=O)[C@@H](N)CCC(N)=O)[C@@H](C)CC)[C@@H](C)CC)C(=O)N[C@@H](CC(=O)O)C(=O)N[C@@H](CCC(=O)O)C(=O)N[C@@H](CC(C)C)C(=O)NCC(=O)N[C@@H](Cc2c[nH]cn2)C(=O)N[C@@H](C)C(=O)N[C@@H](CCC(=O)O)C(=O)N[C@@H](C)C(=O)N1)C(C)C)C(=O)N[C@@H](Cc1ccc(O)cc1)C(=O)N[C@@H](CCC(=O)O)C(=O)N[C@@H](Cc1ccccc1)C(=O)N[C@@H](CCSC)C(=O)N[C@@H](CCCCN)C(=O)N[C@@H](CCCCN)C(=O)NCC(N)=O [Compound 177] (H-QKIYEIMRLCDELGHAEACMRVSDLIYEFMKKG-NH2; disulfide 10-19)
IC50 [1]: > 10000 nM

CC[C@H](C)[C@H](NC(=O)[C@H](CCCCN)NC(=O)[C@H](CCC(N)=O)NC(C)=O)C(=O)N[C@@H](Cc1ccc(O)cc1)C(=O)N[C@@H](CCC(=O)O)C(=O)N[C@H](C(=O)N[C@@H](CCSC)C(=O)N[C@@H](CCCNC(=N)N)C(=O)N[C@@H](CC(C)C)C(=O)N[C@H]1CSSC[C@@H](C(=O)N[C@@H](CCSC)C(=O)N[C@@H](CCCNC(=N)N)C(=O)N[C@H](C(=O)N[C@@H](CO)C(=O)N[C@@H](CC(=O)O)C(=O)N[C@@H](CC(C)C)C(=O)N[C@H](C(=O)N[C@@H](Cc2ccc(O)cc2)C(=O)N[C@@H](CCC(=O)O)C(=O)N[C@@H](Cc2ccccc2)C(=O)N[C@@H](CCSC)C(=O)N[C@@H](CCCCN)C(=O)N[C@@H](CCCCN)C(=O)NCC(N)=O)[C@@H](C)CC)C(C)C)NC(=O)[C@H](C)NC(=O)[C@H](CCC(=O)O)NC(=O)[C@H](C)NC(=O)[C@H](Cc2c[nH]cn2)NC(=O)CNC(=O)[C@H](CC(C)C)NC(=O)[C@H](CCC(=O)O)NC(=O)[C@H](CC(=O)O)NC1=O)[C@@H](C)CC [Compound 178] (Ac-QKIYEIMRLCDELGHAEACMRVSDLIYEFMKKG-NH2; disulfide 10-19)
IC50 [1]: > 10000 nM

CC[C@H](C)[C@H](N)C(=O)N[C@@H](CC(C)C)C(=O)N[C@@H](CCC(N)=O)C(=O)N[C@@H](CCCCN)C(=O)N[C@H](C(=O)N[C@@H](Cc1ccc(O)cc1)C(=O)N[C@@H](CCC(=O)O)C(=O)N[C@H](C(=O)N[C@@H](CCSC)C(=O)N[C@@H](CCCNC(=N)N)C(=O)N[C@@H](CC(C)C)C(=O)N[C@H]1CSSC[C@@H](C(=O)N[C@@H](CCSC)C(=O)N[C@@H](CCCNC(=N)N)C(=O)N[C@H](C(=O)N[C@@H](CO)C(=O)N[C@@H](CC(=O)O)C(=O)N[C@@H](CC(C)C)C(=O)N[C@H](C(=O)N[C@@H](Cc2ccc(O)cc2)C(=O)N[C@@H](CCC(=O)O)C(=O)N[C@@H](Cc2ccccc2)C(=O)N[C@@H](CCSC)C(=O)N[C@@H](CCCCN)C(=O)N[C@@H](CCCCN)C(=O)NCC(N)=O)[C@@H](C)CC)C(C)C)NC(=O)[C@H](C)NC(=O)[C@H](CCC(=O)O)NC(=O)[C@H](C)NC(=O)[C@H](Cc2c[nH]cn2)NC(=O)CNC(=O)[C@H](CC(C)C)NC(=O)[C@H](CCC(=O)O)NC(=O)[C@H](CC(=O)O)NC1=O)[C@@H](C)CC)[C@@H](C)CC [Compound 179] (H-ILQKIYEIMRLCDELGHAEACMRVSDLIYEFMKKG-NH2; disulfide 12-21)
IC50 [1]: 152 nM and 168 nM

CC[C@H](C)[C@H](NC(C)=O)C(=O)N[C@@H](CC(C)C)C(=O)N[C@@H](CCC(N)=O)C(=O)N[C@@H](CCCCN)C(=O)N[C@H](C(=O)N[C@@H](Cc1ccc(O)cc1)C(=O)N[C@@H](CCC(=O)O)C(=O)N[C@H](C(=O)N[C@@H](CCSC)C(=O)N[C@@H](CCCNC(=N)N)C(=O)N[C@@H](CC(C)C)C(=O)N[C@H]1CSSC[C@@H](C(=O)N[C@@H](CCSC)C(=O)N[C@@H](CCCNC(=N)N)C(=O)N[C@H](C(=O)N[C@@H](CO)C(=O)N[C@@H](CC(=O)O)C(=O)N[C@@H](CC(C)C)C(=O)N[C@H](C(=O)N[C@@H](Cc2ccc(O)cc2)C(=O)N[C@@H](CCC(=O)O)C(=O)N[C@@H](Cc2ccccc2)C(=O)N[C@@H](CCSC)C(=O)N[C@@H](CCCCN)C(=O)N[C@@H](CCCCN)C(=O)NCC(N)=O)[C@@H](C)CC)C(C)C)NC(=O)[C@H](C)NC(=O)[C@H](CCC(=O)O)NC(=O)[C@H](C)NC(=O)[C@H](Cc2c[nH]cn2)NC(=O)CNC(=O)[C@H](CC(C)C)NC(=O)[C@H](CCC(=O)O)NC(=O)[C@H](CC(=O)O)NC1=O)[C@@H](C)CC)[C@@H](C)CC [Compound 180] (Ac-ILQKIYEIMRLCDELGHAEACMRVSDLIYEFMKKG-NH2; disulfide 12-21)
IC50 [1]: 137 nM
